pEC50: −log10 of the molar value.

Data on ten compounds can be found in patent US20230089582A1, “1,2,4-TRIAZINE-3,5-DIONE COMPOUND, PREPARATION METHOD THEREFOR, AND APPLICATION THEREOF” (KPC PHARMACEUTICALS, INC, priority 2019, published 2023).

Data set [1] has as its target T1, THRβ (Homo sapiens, UniProt P10828).
T1 construct: RXRα and GST-tagged THRβ-LBD
Put plainly: THRβ binding assay (TR-FRET co-activating peptide recruitment). It is filed as biochemical. Particulars: THRβ-LBD/RXRα, SRC2-2 co-activating peptide recruitment, agonistic effect. How it is done: Experimental method: In vitro analysis of the agonistic effect of the compounds on THRβ was performed using a time-resolved fluorescence resonance energy transfer co-activating peptide recruitment assay. The assay used Eu-anti-GST antibody, biotin-SRC2-2 co-activating peptide, streptavidin-d2, RXRα and GST-tagged THRβ-LBD. The Eu-anti-GST antibody indirectly labeled THRβ-LBD by binding to GST tag. Streptavidin-d2 indirectly labeled the SRC2-2 co-activating peptide by binding to biotin tag. In the presence of RXRα, THRβ-LBD can form a heterodimer THRβ-LBD/RXRα with it. The agonist bound to THRβ-LBD/RXRα and caused a conformational change of THRβ-LBD, thereby increasing the recruitment capacity of the heterodimer to the SRC2-2 co-activating peptide. Furthermore, the resulting decreased distance between the d2-labeled SRC2-2 co-activating peptide and the Eu-anti-GST antibody increased the […] signal. The agonistic ability of a compound can be assessed based on the effect of different concentrations of the compound on THRβ activity.
The detailed procedure is as follows.
a. 100× reference compound or compound was prepared with DMSO and diluted in 1:3.
e. The plates were centrifuged at 1000 rpm for 1 min and incubated for 4 h at room temperature shielded from light.
A general note: In TR-FRET formats the signal depends on donor and acceptor labels being close together.

Data set [2] in a line: in vitro. Particulars: microsomes, pH 7.4. How it is done:
The stop solution was an acetonitrile solution containing tolbutamide and propranolol (both internal standards).
Phosphate buffer was 100 mM K3PO4 (pH=7.4) buffer containing 3.3 mM MgCl2.
The liver microsome incubation system was in 100 mM phosphate buffer containing 0.2 mg/mL liver microsomal protein and 1 μM test substance/positive control.
80 μL of the mixture was transferred from the incubation system to 400 μL of stop solution to precipitate proteins, and 20 μL of NADPH regeneration system was added after vortexing as a 0 min sample point.
130 μL of NADPH regeneration system was added to the remaining 520 μL of protein drug mixture and mixed well to start incubation. The final incubation system was 650 μL, containing 0.2 mg/mL liver microsomal protein, 1 μM test substance/positive control, 1.3 mM NADP, 3.3 mM G-6-P and 0.6 U/mL G-6-PDH.

In data set [3] the target is THRα (Homo sapiens, UniProt P10827). As to the kind of experiment: THRα binding assay (TR-FRET co-activating peptide recruitment). Particulars: THRα instead of THRβ, agonistic effect. It is filed as biochemical.
Sequence of THRα (P10827 163-410 isoform P10827-2 limits assumed, other chains not shown): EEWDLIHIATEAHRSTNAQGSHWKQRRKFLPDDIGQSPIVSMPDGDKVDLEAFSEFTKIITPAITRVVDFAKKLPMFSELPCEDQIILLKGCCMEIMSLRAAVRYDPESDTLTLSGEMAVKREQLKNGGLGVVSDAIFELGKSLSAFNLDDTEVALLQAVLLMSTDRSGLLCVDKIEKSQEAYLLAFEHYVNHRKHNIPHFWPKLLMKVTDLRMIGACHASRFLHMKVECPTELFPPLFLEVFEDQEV
Sequence of THRα (P19793 whole entry partner, other chains not shown): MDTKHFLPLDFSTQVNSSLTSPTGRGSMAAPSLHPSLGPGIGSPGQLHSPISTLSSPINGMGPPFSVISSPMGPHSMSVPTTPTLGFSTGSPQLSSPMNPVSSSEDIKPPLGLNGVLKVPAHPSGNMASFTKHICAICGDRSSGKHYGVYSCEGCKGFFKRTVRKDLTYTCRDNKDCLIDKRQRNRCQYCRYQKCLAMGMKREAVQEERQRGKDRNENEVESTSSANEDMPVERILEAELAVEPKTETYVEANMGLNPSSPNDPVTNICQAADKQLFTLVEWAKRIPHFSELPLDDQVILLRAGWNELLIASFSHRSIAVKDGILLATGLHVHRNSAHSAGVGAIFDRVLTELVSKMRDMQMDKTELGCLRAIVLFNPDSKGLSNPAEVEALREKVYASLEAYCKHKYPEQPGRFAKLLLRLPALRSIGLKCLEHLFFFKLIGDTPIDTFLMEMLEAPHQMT

T1 sequence (P10828 217-461 limits assumed, other chains not shown): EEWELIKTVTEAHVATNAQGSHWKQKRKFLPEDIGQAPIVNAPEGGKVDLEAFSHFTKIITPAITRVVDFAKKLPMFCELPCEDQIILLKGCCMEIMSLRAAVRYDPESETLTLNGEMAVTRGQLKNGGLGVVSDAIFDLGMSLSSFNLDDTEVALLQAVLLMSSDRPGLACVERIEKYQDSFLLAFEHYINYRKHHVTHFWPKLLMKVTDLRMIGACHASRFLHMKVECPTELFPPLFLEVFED
T1 sequence (P19793 whole entry partner, other chains not shown, the tested form may be a part): as the sequence (P19793 whole entry partner, other chains not shown) above

Broadly, the pEC50 is the EC50 on a negative log10 scale, so that one unit is a factor of ten. Read a high pEC50 as a small EC50. `CC(C)c1cc(Oc2c(Cl)cc(-n3nc(O)c(=O)[nH]c3=O)cc2Cl)n[nH]c1=O` [Example 20, 2-(3,5-dichloro-4-((5-isopropyl-6-oxo-1,6-dihydropyridazin-3-yl)oxy)phenyl)-6-hydroxy-1,2,4-triazine-3,5(2H,4H)-dione] gave a pEC50 in data set [1] of less than 5.00.

As usually defined, the half-life is how long it takes for the measured level to halve. Lower therefore signals rapid decline. Usually microsomal CLint stands for the capacity of the preparation to metabolise the compound, expressed as a volume cleared per time. Read a high microsomal CLint as rapid turnover. Regarding `CC(C)c1cc(Oc2c(Cl)cc(-n3nc(C#N)c(=O)[nH]c3=O)cc2Cl)n[nH]c1=O` [Control compound 2, MGL-3196, reference compound], the half-life at 1 μM came to 2 h in data set [2] (dog), 5.18 h in data set [2] (human), 4.96 h in data set [2] (monkey) and 12.8 h in data set [2] (rat). The microsomal CLint at 1 μM in data set [2] (dog) amounted to 28.9 µL/min/mg; in data set [2] (human), 11.2 µL/min/mg; in data set [2] (monkey), 11.6 µL/min/mg; in data set [2] (rat) it was 4.5 µL/min/mg.

Usually Emax stands for the greatest response seen or fitted, relative to the assay's reference. As for `CC(C)c1cc(Oc2c(Cl)cc(-n3nc(CF)c(=O)[nH]c3=O)cc2Cl)n[nH]c1=O` [Example 2], the half-life at 1 μM came to 4.4 h in data set [2] (dog); 17.1 h in data set [2] (human); 8.92 h in data set [2] (monkey); 3.12 h in data set [2] (mouse); 12.3 h in data set [2] (rat). In addition, the microsomal CLint at 1 μM in data set [2] (dog) worked out at 13.1 µL/min/mg; in data set [2] (human) it was 3.4 µL/min/mg; in data set [2] (monkey) it was 6.5 µL/min/mg; in data set [2] (mouse), 18.5 µL/min/mg; in data set [2] (rat), 4.7 µL/min/mg. In addition, the results for the pEC50 in data set [1] and in data set [3] were 8.30 and 6.72, respectively. The Emax in data set [1] was found to be 92.8%; in data set [3], 107%.

Consider `O=c1[nH]nc(Oc2c(Cl)cc(-n3nc(CF)c(=O)[nH]c3=O)cc2Cl)cc1C1CCC1` [Example 14, 2-(3,5-dichloro-4-((5-cyclobutyl-6-oxo-1,6-dihydropyridazin-3-yl)oxy)phenyl)-6-(fluoromethyl)-1,2,4-triazine-3,5(2H,4H)-dione], for which, in data set [1], the pEC50 is 7.38 and the Emax is 117%. Besides, in data set [3], the pEC50 was 6.64 and the maximal effect (Emax) stood at 124%.

Regarding `O=c1[nH]nc(Oc2c(Cl)cc(-n3nc(CF)c(=O)[nH]c3=O)cc2Cl)cc1C1CCCC1` [Example 10, 2-(3,5-dichloro-4-((5-cyclopentyl-6-oxo-1,6-dihydropyridazin-3-yl)oxy)phenyl)-6-(fluoromethyl)-1,2,4-triazine-3,5(2H,4H)-dione], the pEC50 was 7.03 in data set [1] and 5.85 in data set [3]. Also, the Emax in data set [1] stood at 110%; in data set [3], 112%.

In the case of `O=c1[nH]nc(Oc2c(Cl)cc(-n3nc(CF)c(=O)[nH]c3=O)cc2Cl)cc1C1CCCCC1` [Example 9, 2-(3,5-dichloro-4-((5-cyclohexyl-6-oxo-1,6-dihydropyridazin-3-yl)oxy)phenyl)-6-(fluoromethyl)-1,2,4-triazine-3,5(2H,4H)-dione], in data set [1], the pEC50 was 7.00 and the Emax was 108%. In data set [3], the pEC50 is 5.37 and the Emax was 123%.

As to `CC(C)(F)c1cc(Oc2c(Cl)cc(-n3nc(CF)c(=O)[nH]c3=O)cc2Cl)n[nH]c1=O` [Example 16, 3-(3,5-dichloro-4-((5-(2-fluoropropan-2-yl)-6-oxo-1,6-dihydropyridazin-3-yl)oxy)phenyl)-6-(fluoromethyl)-1,2,4-triazine-3,5(2H,4H)-dione], in data set [1], the pEC50 was 6.79 and the Emax was 111%.

For `C=C(C)c1cc(Oc2c(Cl)cc(-n3nc(CF)c(=O)[nH]c3=O)cc2Cl)n[nH]c1=O` [Example 18, 2-(3,5-dichloro-4-((6-oxo-5-(prop-1-en-2-yl)-1,6-dihydropyridazin-3-yl)oxy)phenyl)-6-(fluoromethyl)-1,2,4-triazine-3,5(2H,4H)-dione], in data set [1], the pEC50 is 7.63 and the Emax is 124%.

With `O=c1[nH]nc(Oc2c(Cl)cc(-n3nc(CF)c(=O)[nH]c3=O)cc2Cl)cc1C1CC1` [Example 12, 2-(3,5-dichloro-4-((5-cyclopropyl-6-oxo-1,6-dihydropyridazin-3-yl)oxy)phenyl)-6-(fluoromethyl)-1,2,4-triazine-3,5(2H,4H)-dione], in data set [1], the pEC50 is 7.15 and the Emax is 105%. In data set [3], this compound gave a pEC50 of 6.68 and an Emax of 127%.

In data set [1], `CC(C)c1cc(Oc2c(Cl)cc(-n3nc(C4CC4)c(=O)[nH]c3=O)cc2Cl)n[nH]c1=O` [Example 19, 6-cyclopropyl-2-(3,5-dichloro-4-((5-isopropyl-6-oxo-1,6-dihydropyridazin-3-yl)oxy)phenyl)-1,2,4-triazine-3,5(2H,4H)-dione] had a pEC50 of 5.14 and an Emax of 77.7%.
